We go through four compounds from patent US9556168B2, “N-alkylated indole and indazole compounds as RORgammaT inhibitors and uses thereof” (Merck Sharp & Dohme Corp., priority 2012, dated 2017).

Read-outs that look alike come from different tables or passages of the source. A value given as a limit tells only on which side of the number the result lay.

As usually defined, the IC50 is the point on the concentration scale where inhibition reaches its midpoint. Read a low IC50 as inhibition by little substance.

The target in the assay is human RORgammaT-Ligand Binding Domain (LBD) (Homo sapiens (Human), UniProt P51449). Nature of the assay: RORγ-Ligand Binding Domain TR-FRET assay (co-activator peptide SRC1_2 recruitment). It is filed as biochemical. (In TR-FRET formats the signal depends on donor and acceptor labels being close together.)
Setting [1] is: HIS-tagged RORγ-LBD 3 nM, biotinylated SRC1 LXXLL peptide 100 nM, incubated overnight at 4° C., 665 nm/615 nm signal quotient.

human RORgammaT-Ligand Binding Domain (LBD), sequence (P51449 269-508): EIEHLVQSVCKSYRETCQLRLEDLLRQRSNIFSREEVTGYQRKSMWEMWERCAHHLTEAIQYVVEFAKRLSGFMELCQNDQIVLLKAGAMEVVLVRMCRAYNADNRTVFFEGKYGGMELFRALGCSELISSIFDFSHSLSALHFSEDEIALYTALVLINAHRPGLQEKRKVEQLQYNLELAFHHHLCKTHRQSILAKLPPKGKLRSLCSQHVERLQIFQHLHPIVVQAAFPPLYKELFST

On to `N#Cc1ccc(Cl)cc1Cn1nc(-c2ccc(C(=O)O)cc2F)c2ncccc21` [Example 1J, 4-[1-(5-chloro-2-cyanobenzyl)-1H-pyrazolo[4,3-b]pyridin-3-yl]-3-fluorobenzoic acid], for which the concentration for half-maximal inhibition (IC50) is greater than 10 µM.

On to `O=C(O)c1ccc(-c2nn(Cc3c(F)ccc(F)c3F)c3cccnc23)c(F)c1` [Example 1N, 3-fluoro-4-[1-(2,3,6-trifluorobenzyl)-1H-pyrazolo[4,3-b]pyridin-3-yl]benzoic acid], for which the IC50 under setting [1] is greater than 10 µM.

The compound `CC(c1ccccc1C(F)(F)F)n1nc(-c2ccc(C(=O)O)cc2F)c2ncccc21` (stereo not shown) [Example 1K, 3-fluoro-4-(1-{1-[2-(trifluoromethyl)phenyl]ethyl}-1H-pyrazolo[4,3-b]pyridin-3-yl)benzoic acid] registered an IC50 under setting [1] greater than 10 µM.

`O=C(O)c1ccc(-c2nn(Cc3c(F)cccc3F)c3cccnc23)c(F)c1` [Example 1P, 4-[1-(2,6-difluorobenzyl)-1H-pyrazolo[4,3-b]pyridin-3-yl]-3-fluorobenzoic acid] came in with an IC50 under setting [1] greater than 10 µM.
